± gives the expanded uncertainty stated by the source.
Conditions: Crystal; DTA

Normal melting temperature: 337.43 ± 1 °C
SMILES: O=c1cc(-c2ccc(O)c(O)c2)oc2cc(O)cc(O)c12 [5,7,3',4'-tetrahydroxyflavone]

Source: the NIST ThermoML archive (doi:10.1021/je900381r)
